In article PMC6835155, “Lessons from LIMK1 enzymology and their impact on inhibitor design” (Biochemical Journal, 2019):
Structures can show the parent of a compound that is named as a salt. Where two headings read alike, the source gives them in different places.

Legend:
[1] = biological target: T1, LIMK2KD (Homo sapiens, UniProt P53671); assay: Differential (dynamic) scanning fluorimetry (DSF) assay, LIMK2KD; assay type: binding
T1 construct: The cDNA coding for LIMK2 residues 330 to 632 was PCR amplified; His6 (N, cleaved yes); made in house; host or cells: baculovirus; Sf9 for virus, TriEx insect cells for expression
T1 sequence (P53671 330-632): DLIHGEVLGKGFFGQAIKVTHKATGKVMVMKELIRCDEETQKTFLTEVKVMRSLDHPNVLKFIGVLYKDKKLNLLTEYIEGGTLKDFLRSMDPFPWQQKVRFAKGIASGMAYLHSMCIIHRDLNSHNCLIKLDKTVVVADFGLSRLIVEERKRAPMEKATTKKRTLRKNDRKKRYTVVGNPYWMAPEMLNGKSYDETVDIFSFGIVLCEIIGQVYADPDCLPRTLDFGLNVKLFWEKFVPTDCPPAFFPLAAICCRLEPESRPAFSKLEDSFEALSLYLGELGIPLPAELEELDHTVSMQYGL

[2] = biological target: T2, LIMK1KD (Homo sapiens, UniProt P53667); assay: Differential (dynamic) scanning fluorimetry (DSF) assay, LIMK1KD; assay type: binding; settings: 2 µM LIMK1KD, compound 10 µM, single shot; for ΔTm at 10 µM: read-out: TM Shift LIMK1 (K)
T2 construct: His6 (N, cleaved yes); made in house; host or cells: baculovirus; Sf9 for virus, TriEx insect cells for expression
T2 sequence (P53667 330-637): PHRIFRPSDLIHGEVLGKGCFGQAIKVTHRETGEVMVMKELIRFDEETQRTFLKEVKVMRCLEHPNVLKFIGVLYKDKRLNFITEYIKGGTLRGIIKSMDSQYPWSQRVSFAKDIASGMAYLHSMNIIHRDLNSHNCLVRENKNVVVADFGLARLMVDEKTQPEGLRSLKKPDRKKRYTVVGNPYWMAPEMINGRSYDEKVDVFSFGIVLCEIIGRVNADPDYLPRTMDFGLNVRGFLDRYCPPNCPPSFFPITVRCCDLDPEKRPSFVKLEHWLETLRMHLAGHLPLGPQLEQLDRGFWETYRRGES

[3] = LIMK2KD, compound 10 µM, single shot, read-out: TM Shift LIMK2 (K)
[4] = LIMK2KD, compound 10 µM, single shot, 10 µM
[5] = LIMK2KD, compound 10 µM, single shot

| Compound | ΔTm at 10 µM [1, 3] [°C] | ΔTm at 10 µM [2] [°C] | TM Shift LIMK1 (K) [2] [K] | further results |
| --- | --- | --- | --- | --- |
| Cc1c(CN2CCN(C(=O)[C@H](C)O)CC2)sc2c(N3CCOCC3)nc(-c3cnc(N)nc3)nc12 [GDC-0980 (RG7422)] | – | – | 1.4 | TM Shift LIMK2 (K) [1, 5]: 0.6 K |
| CCn1c(-c2nonc2N)nc2cnc(Oc3cccc(NC(=O)c4ccc(OCCN5CCOCC5)cc4)c3)cc21 [GSK269962] | – | – | 1.0 | TM Shift LIMK2 (K) [1, 5]: 0.1 K |
| CC1=C(C(=O)Nc2cc3cn[nH]c3cc2F)C(c2ccc(C(F)(F)F)cc2)CC(=O)N1 (stereo not drawn) [GSK429286A] | 1.4 | 0.5 | – | – |
| CNC(=O)c1c(F)cccc1Nc1nc(Nc2cc3c(cc2OC)CCN3C(=O)CN(C)C)nc2[nH]ccc12 [GSK1838705A] | – | – | 0.4 | TM Shift LIMK2 (K) [1, 5]: 1.0 K |
| CCc1cc(Nc2nccc(-c3c(-c4ccc(OC)c(C(=O)Nc5c(F)cccc5F)c4)nc4ccccn34)n2)c(OC)cc1N1CCC(N2CCN(S(C)(=O)=O)CC2)CC1 [GSK1904529A] | – | – | 0.8 | TM Shift LIMK2 (K) [1, 5]: 0.7 K |
| COc1ncc(-c2ccc3nccc(-c4ccnnc4)c3c2)cc1NS(=O)(=O)c1ccc(F)cc1F [GSK2126458 (GSK458)] | – | – | 1.2 | TM Shift LIMK2 (K) [1, 5]: 0.9 K |
| O=C1Nc2ccc(I)cc2/C1=C/c1cc(Br)c(O)c(Br)c1 [GW5074] | – | – | 0.0 | TM Shift LIMK2 (K) [1, 5]: 5.6 K |
| Cc1cccc(-c2nn3c(c2-c2ccnc4ccc(C(N)=O)cc24)CCC3)n1 [Galunisertib] | -0.5 | 0.3 | – | – |
| Cc1cc(Nc2cc(CN3CCOCC3)c3nc(C)c(Cc4ccc(Cl)cc4F)n3n2)n[nH]1 [Gandotinib] | – | – | 5.4 | TM Shift LIMK2 (K) ([1]; LIMK2KD, compound 10 µM, single shot, listed as gandotinib, 10 µM): −0.5 K |
| COc1cc2ncnc(Nc3ccc(F)c(Cl)c3)c2cc1OCCCN1CCOCC1 [Gefitinib (ZD1839), Gefitinib] | – | -0.6 | – | ΔTm at 10 µM ([1]; read-out: TM Shift LIMK2 (K), LIMK2KD, compound 10 µM, single shot): 0.5 °C |
| O=c1c(-c2ccc(O)cc2)coc2cc(O)cc(O)c12 [Genistein] | 4 | -0.3 | – | – |
| COc1ccc2c(c1)c(C1=C(c3c[nH]c4ccccc34)C(=O)NC1=O)cn2CCCN(C)C [Go 6983] | – | – | 0.5 | TM Shift LIMK2 (K) [1, 5]: 1.8 K |
| CN1CCN(C2CCN(C(=O)Nc3cc(Oc4ccc(NC(=O)C5(C(=O)Nc6ccc(F)cc6)CC5)c(F)c4)ccn3)CC2)CC1 [Golvatinib (E7050), Golvatinib] | 1 | 3 | – | – |
| Cl.Cl.O=S(=O)(NCCNC/C=C/c1ccc(Br)cc1)c1cccc2cnccc12 [H 89 2HCl] | – | – | 1.8 | TM Shift LIMK2 (K) [1, 5]: 3.9 K |
| Cc1cc(Nc2ncnc3ccc(-c4ccc(CNCCS(C)(=O)=O)o4)cc23)ccc1Oc1ccn2ncnc2c1 [HER2-Inhibitor-1] | – | – | 2.0 | TM Shift LIMK2 (K) [1, 5]: 0.2 K |
| COc1ccc(S(=O)(=O)N(C(C)=O)c2ccccc2/C=C/c2cc[n+]([O-])cc2)cc1 [HMN-214] | 1 | 2.5 | – | – |
| CCS(=O)(=O)Nc1ccc2c(c1)/C(=C(/Nc1ccc(CN3CCCCC3)cc1)c1ccccc1)C(=O)N2 [Hesperadin] | 1.2 | 2.7 | – | – |

| Compound | ΔTm at 10 µM [1, 3] [°C] | ΔTm at 10 µM [2] [°C] | TM Shift LIMK1 (K) [2] [K] | further results |
| --- | --- | --- | --- | --- |
| C=CCc1ccc(O)c(-c2ccc(O)c(CC=C)c2)c1 [Honokiol] | 1.7 | 0.9 | – | – |
| O=C(c1ccc(Nc2nccc(-c3cc4ccccc4s3)n2)cc1)N1CCC(N2CCCC2)CC1 [IKK-16 (IKK Inhibitor VII)] | – | – | 7.0 | TM Shift LIMK2 (K) [1, 5]: 2.1 K |
| O=C(Nc1cc(C(F)(F)F)cc(C(F)(F)F)c1)c1cc(Cl)ccc1O [IMD 0354] | 1.4 | -0.6 | – | – |
| CC(C)n1nc(-c2ccc3oc(N)nc3c2)c2c(N)ncnc21 [INK 128 (MLN0128)] | 0.3 | 1.4 | – | – |
| C[C@H](Nc1ncnc2nc[nH]c12)c1cc2cccc(Cl)c2c(=O)n1-c1ccccc1 [IPI-145 (INK1197)] | -0.6 | -1.5 | – | – |
| C=CC(=O)N1CCC[C@@H](n2nc(-c3ccc(Oc4ccccc4)cc3)c3c(N)ncnc32)C1 [Ibrutinib (PCI-32765), Ibrutinib] | 0.7 | 2.4 | – | – |
| C#Cc1cccc(Nc2ncnc3cc4c(cc23)OCCOCCOCCO4)c1 [Icotinib] | -0.6 | -0.2 | – | – |
| CC[C@H](Nc1ncnc2[nH]cnc12)c1nc2cccc(F)c2c(=O)n1-c1ccccc1 [Idelalisib] | – | – | 0.5 | TM Shift LIMK2 (K) [1, 4]: -0.8 K; TM Shift LIMK2 (K) ([1]; LIMK2KD, compound 10 µM, single shot, listed as CAL-101 (Idelalisib, GS-1101), 10 µM): 1.8 K; TM Shift LIMK1 (K) ([2]; listed as CAL-101 (Idelalisib, GS-1101)): -0.1 K |
| Cc1ccc(NC(=O)c2ccc(CN3CCN(C)CC3)cc2)cc1Nc1nccc(-c2cccnc2)n1 [Imatinib (STI571), Imatinib] | 1 | – | 0.8 | – |
| Cc1ccc(NC(=O)c2ccc(CN3CCN(C)CC3)cc2)cc1Nc1nccc(-c2cccnc2)n1 [Imatinib Mesylate (STI571), Imatinib Mesylate] | – | – | 0.0 | TM Shift LIMK2 (K) [1, 4]: 0.8 K |
| O=C1Nc2ccccc2/C1=C1/Nc2ccccc2C1=O [Indirubin] | 2.6 | 1.4 | – | – |
| CC(C)NC[C@@H](C(=O)N1CCN(c2ncnc3c2[C@H](C)C[C@H]3O)CC1)c1ccc(Cl)cc1 [Ipatasertib] | – | – | 2.3 | TM Shift LIMK2 (K) [1, 4]: 2.3 K |
| CCCNC(=O)Nc1ccc(Oc2ncnc3cc(OC)c(OC)cc23)cc1Cl [KRN 633] | 1.4 | 1.9 | – | – |
| O=c1cc(-c2cccc3c2Sc2ccccc2S3)oc(N2CCOCC2)c1 [KU-55933 (ATM Kinase Inhibitor)] | -0.1 | -0.2 | – | – |
| O=C(Cc1ccc(-c2ccc(OCCN3CCOCC3)cc2)cn1)NCc1ccccc1 [KX2-391] | – | – | 1.7 | TM Shift LIMK2 (K) [1, 5]: -0.3 K |
| COc1cc2nccc(Oc3ccc(NC(=O)Nc4ccc(F)cc4F)c(F)c3)c2cc1OC [Ki8751] | – | – | -0.1 | TM Shift LIMK2 (K) [1, 5]: 1.5 K |

Further lines, with some results ahead:

| ΔTm at 10 µM [1, 3] [°C] | ΔTm at 10 µM [2] [°C] | TM Shift LIMK1 (K) [2] [K] | Compound | further results |
| --- | --- | --- | --- | --- |
| -1.3 | -0.5 | – | CCNC(=O)Nc1ccc(-c2nc3c(c(N4CCOC[C@@H]4C)n2)CCN(C2COC2)C3)cc1 [GDC-0349] | – |
| 0 | -0.7 | – | OCCn1cc(-c2ccc3c(c2)CC/C3=N\O)c(-c2ccncc2)n1 [GDC-0879] | – |
| – | – | -0.3 | CS(=O)(=O)N1CCN(Cc2cc3nc(-c4cccc5[nH]ncc45)nc(N4CCOCC4)c3s2)CC1 [GDC-0941] | TM Shift LIMK2 (K) [1, 4]: -0.4 K |
| – | – | -1.0 | NC(=O)c1cccc(-c2cc(Nc3ccc(OC(F)(F)F)cc3)ncn2)c1 [GNF-2] | TM Shift LIMK2 (K) [1, 5]: 0.9 K |
| 0.8 | 1.1 | – | C[C@@H](Oc1cc(-n2cnc3ccc(CN4CCN(C)CC4)cc32)sc1C(N)=O)c1ccccc1C(F)(F)F [GSK461364] | – |
| -0.2 | 1.4 | – | O=C(O)c1ccc(-c2c[nH]c3ncc(-c4ccccc4)cc23)cc1C1CCCC1 [GSK650394] | – |
| 0 | -0.1 | – | CCn1c(-c2nonc2N)nc2c(C#CC(C)(C)O)ncc(OC[C@H]3CCCNC3)c21 [GSK690693] | – |
| 2.6 | 1.2 | – | O=C1NC(=O)/C(=C/c2ccc3nccc(-c4ccncc4)c3c2)S1 [GSK1059615] | – |
| -0.1 | 1.3 | – | CCn1cc(-c2ccnc3[nH]c(-c4cccc(CN(C)C)c4)cc23)c(-c2ccc(NC(=O)N(C)C)cc2)n1 [GSK1070916] | – |
| 1.1 | 0.5 | – | CNc1nc(-c2ccc3c(N)n[nH]c3c2)cc(N2C[C@@H](C(=O)NC3CCCCC3)CC[C@H]2C)n1 [GSK2334470] | – |
| 2 | 0.1 | – | Cc1c(Cn2c(C)nc3c(C(=O)O)cc(N4CCOCC4)cc32)cccc1C(F)(F)F [GSK2636771] | – |
| 0 | -0.2 | – | CNC(=O)c1ccc(-c2cnc3ncc(Cc4ccc5ncccc5c4)n3n2)cc1F [INCB28060] | – |
| – | – | 0.0 | Oc1ccc2ccccc2c1SSc1c(O)ccc2ccccc12 [IPA-3] | TM Shift LIMK2 (K) [1, 5]: 1.2 K |
| 5.8 | 8.2 | – | Nc1nc(Nc2ccc(S(N)(=O)=O)cc2)nn1C(=O)c1c(F)cccc1F [JNJ-7706621] | – |
| – | – | -0.1 | Cn1cc(-c2ccc3nnc(C(F)(F)c4ccc5ncccc5c4)n3n2)cn1 [JNJ-38877605] | TM Shift LIMK2 (K) [1, 5]: -0.2 K |
| 0.6 | 0.5 | – | C[C@@H]1CN(CC(=O)Nc2ccc3c(c2)Cc2cccc(-c4cc(=O)cc(N5CCOCC5)o4)c2S3)C[C@H](C)O1 [KU-60019] | – |
| 2 | 0.3 | – | COc1ccc(-c2ccc3c(N4CCOCC4)nc(N4C[C@@H](C)O[C@@H](C)C4)nc3n2)cc1CO [KU-0063794] | – |
| 0.8 | 1.7 | – | O=C(c1ccc(/C=C/c2n[nH]c3ccccc23)cc1)N1CCNCC1 [KW-2449] | – |
| -0.3 | 0.2 | – | Cc1cc(Nc2ncc(Cl)c(Nc3ccccc3S(=O)(=O)C(C)C)n2)c(OC(C)C)cc1C1CCNCC1 [LDK378] | – |
| 0.4 | 0 | – | O=c1cc(N2CCOCC2)oc2c(-c3ccccc3)cccc12 [LY294002] | – |
| – | – | 2.1 | CC(C)(C)Cn1c(N)nc2ccc(-c3[nH]c(C(C)(C)C)nc3-c3ccc(F)cc3)nc21 [LY2228820] | TM Shift LIMK2 (K) [1, 4]: 4.4 K |
| – | – | 0.1 | Cc1cnc(NC(=O)Nc2cc(Br)c(C)cc2OC[C@@H]2CNCCO2)cn1 [LY2603618] | TM Shift LIMK2 (K) [1, 4]: 0.7 K |
| – | 5 | – | Cc1cc(Nc2cc(CN3CCOCC3)c3nc(C)c(Cc4ccc(Cl)cc4F)n3n2)n[nH]1 [LY2784544] | TM Shift LIMK2 (K) [1, 4]: 1.1 K |
